US20210029993A1, “SPATIAL INHIBITORS, DETERRENTS AND REPELLENTS FOR MOSQUITOES AND MIDGES” (BEDOUKIAN RESEARCH, INC., priority 2005, published 2021)

Legend:
Type in all cases: in vivo
[1] = test system: female biting midges (Culicoides impunctatus); assay: Biting midges flying test (Plexiglas module); conditions: 92.5 wt % compound(s) in composition, control = 1, higher = more inhibitor activity
Method: The following tests are employed to illustrate the efficacy of the compounds of this disclosure to effectively act as biting midge deterrents, repellents or as spatial inhibitors for biting midges. […] Biting midges are tested in a two-piece Plexiglas module designed to assess their response to feeding deterrents. […] Water (40° C.) flows through the central cavity of the platform at a rate of 215 ml/min. The top piece of the module consists of six 4.5×4.0×5.0 cm chambers, the floors of which are fitted with a sliding door positioned over a circular opening 3.5 cm in diameter. Biting midges are introduced through an aperture 1 cm in diameter on the front wall of the chambers. For each test, five female biting midges (Culicoides impunctatus) are aspirated into each of five chambers of the top module piece and the apertures are plugged with corks wrapped in plastic film. […] To each well, 77.5 μl of green dye (McCormick Food, Hunt Valley, Md.) are added so that those biting midges imbibing the sugar solution can be identified when crushed at the end of the tests. Each membrane receives 50 μl of acetone or experimental compound solution, applied to 9.6 cm^2 circular area on 0.1 mm-thick membranes made of nylon mesh in a silicone matrix. The membranes are then placed over each well in contact with the sugar solution. The circular openings on the floor of each chamber of the top piece of the module are aligned with each membrane-covered well of the bottom piece. The sliding floors of the chambers are then opened allowing biting midges access to the membranes. The number of biting midges landing on the membranes, and those flying within the apparatus, are recorded each minute for five minutes. After five minutes, any biting midges remaining on the membranes are removed with a metal wire, and the door of the floor of each chamber is closed. The top piece of the module is then placed into a freezer for 20 minutes. In the test designed to assess feeding, biting midges are removed from the frozen module, crushed on white paper towels, and examined for the presence of green dye to indicate that feeding had occurred. The proportions of biting midges feeding per trial are analyzed using a standard generalized linear model with a logit link. Landing and flying scores are repeated measures; five readings are obtained for groups of five biting midges. Thus, to maintain independence among the data, the five readings are summed, and then the sums divided by 25 (the maximum score in each category) to create proportions of biting midges landing and flying. The proportions are then transferred using the standard variance stabilizing transformation for proportions (sin^−1 √y, where y is the proportion), and analyzed using ANOVA (Analysis of Variables). In Table 5, weight percent (wt %) refers to the weight of the deterring/repelling/inhibiting compound, or combination of compounds, in the composition used in the tests. […] The weight ratio of the compounds in the combination of compounds is given in parentheses in the “Compound(s)” column of Table 5.

[2] = test system: female mosquitoes (Aedes aegypti); assay: Mosquitoes feeding test (Plexiglas module, treated membrane over dyed sucrose/ATP solution)
Method: The test was conducted at 0900-2100 hours in a walk-in incubator (26° C., 63-80% RH) illuminated by fluorescent lights. Mosquitoes were tested in a two-piece Plexiglas module designed to assess their response to feeding deterrents. The bottom piece of the module was 40×7×4-cm hollow platform supporting six circular wells (diameter=3.8 cm, depth=6 mm). Water (40° C.) flowed through the central cavity of the platform at a rate of 215 ml/min. The top piece of the module consisted of six 4.5×4.0×5.0 cm chambers, the floors of which were fitted with a sliding door positioned over a circular opening 3.5 cm in diameter. Mosquitoes were introduced through an aperture 1 cm in diameter on the front wall of the chambers. For each test, five female mosquitoes (Aedes aegypti) were aspirated into each of five chambers of the top module piece and the apertures were plugged with corks wrapped in plastic film. The wells on the bottom piece of the module were filled with 7 ml of 10% sucrose solution containing ATP (2.9 mg/ml). To each well, 75 μl of green dye (McCormick Food, Hunt Valley, Md.) were added so that those mosquitoes imbibing the sugar solution could be identified when crushed at the end of the tests. Each membrane received 50 ul of acetone or experimental compound solution, applied to 9.6 cm^2 circular area on 0.1 mm-thick membranes made of nylon mesh in a silicone matrix. The membranes were then placed over each well in contact with the sugar solution.
The circular openings on the floor of each chamber of the top piece of the module were aligned with each membrane-covered well of the bottom piece. The sliding floors of the chambers were then opened allowing mosquitoes access to the membranes. The number of mosquitoes landing on the membranes, and those flying within the apparatus, were recorded each minute for five minutes. After five minutes, any mosquitoes remaining on the membranes were removed with a metal wire, and the door of the floor of each chamber was closed. The top piece of the module was then placed into a freezer for 20 minutes. In the test designed to assess feeding, mosquitoes were removed from the frozen module, crushed on white paper towels, and examined for the presence of green dye to indicate that feeding had occurred. The proportions of mosquitoes feeding per trial were analyzed using a standard generalized linear model with a logit link. Landing and flying scores are repeated measures; five reading were obtained for groups of five mosquitoes. Thus, to maintain independence among the data, the five readings were summed, and then the sums divided by 25 (the maximum score in each category) to create proportions of mosquitoes landing and flying. The proportions were then transferred using the standard variance stabilizing transformation for proportions (sin^−1 √y, where y is the proportion), and analyzed using ANOVA (Analysis of Variables)
In Table 1, weight percent (wt %) refers to the weight of the deterring/repelling/inhibiting compound, or combination of compounds, in the composition used in the tests. […] The weight ratio of the compounds in the combination of compounds is given in parentheses in the “Compound(s)” column of Table 1.

[3] = test system: mosquitoes; assay: Spatial inhibition of mosquitoes, outdoor Mosquito Magnet Liberty Plus trap catch; conditions: 92.5 wt % compound(s) in composition; control trap = 100% catch, lower = more inhibition
Method: Two grams of test compound was absorbed onto pieces of absorbent material. These pieces of absorbent material (fragrance release material from Rhopore Inc.) containing absorbed test compound were then placed in a stream of CO2 and r-octenol being released from an American Biophysics Mosquito Magnet Liberty Plus mosquito trap designed to attract mosquitoes. The test were rotated over a period of 2-5 days in such a manner that both control (trap without test compound) and test compound were tested an equal number of times in each trap employed. The number of mosquitoes caught in the traps with test compounds was compared to the number of mosquitoes caught in the trap with no test compound material present. […] Thus, a lowered percentage is indicative of the increasing ability of the test compounds to inhibit the ability of the mosquitoes sense the target. […] In Table 3, weight percent (wt %) refers to the weight of the deterring/repelling/inhibiting compound, or combination of compounds, in the composition used in the tests. In the “Percent Caught Relative to Control” column in Table 3, a lower percentage is indicative of the increasing ability of the test compounds to inhibit the ability of the mosquitoes sense the target. The weight ratio of the compounds in the combination of compounds is given in parentheses in the “Compound(s)” column of Table 3.

SMILES: CC(C)=CCCC(C)CC=O (stereo not shown) [Citronellal]
- Flying Relative To Control [1]: 1.95
- Feeding Relative To Control ([2]; 92.5 wt % compound(s) in composition, control = 1.00, lower = more repellent): 0.62
- contact mosquito repellent activity (feeding tests, FIGS. 1 and 3), in words ([2]; feeding relative to control, FIGS. 1 and 3): especially effective as contact mosquito repellents
- Percent Caught Relative To Control [3]: 11%
